System: Splenocyte
Test: Immunosuppressive activity in BALB/c mouse splenocytes assessed as reduction in anti-mouse CD3/CD28-induced cell proliferation after 72 hrs by flow cytometric analysis
Type: functional, cell-based

How did the IC50 turn out when `COC(=O)[C@]12C[C@H](C(C)(C)O)C(C)(C)[C@H]1C[C@H]1C[C@@](CC=C(C)C)(C2=O)C(O)=C(C(=O)C(C)C)C1(C)C` was run?
Its IC50 is 8.3 µM.

Reference: ChEMBL document CHEMBL4622919, “Hypersonins A-D, Polycyclic Polyprenylated Acylphloroglucinols with a 1,2-seco-Homoadamantane Architecture from Hypericum wilsonii” (J Nat Prod, 2020)
